Literature values in US11260055B2, “Oral pharmaceutical composition of lurasidone and preparation thereof” (PIRAMAL PHARMA LIMITED, priority 2017, dated 2022).

Settings: in water

Solubility: poor water solubility
Structure (SMILES): O=C1[C@@H]2[C@H]3CC[C@H](C3)[C@@H]2C(=O)N1C[C@@H]1CCCC[C@H]1CN1CCN(c2nsc3ccccc23)CC1 [Lurasidone]
